# ChEMBL document CHEMBL1697821, “Development of a phospholipidosis database and predictive quantitative structure-activity relationship (QSAR) models” (Toxicol Mech Methods, 2008)
# System: Phospholipidosis
# Experiment: Literature-mined public compounds from Kruhlak et al phospholipidosis modelling dataset
row,SMILES,Phospholipidosis
1,C[N+]1(C)CCN(CC(O)(c2ccccc2)C2CCCCC2)CC1 (centres undefined) [HEXOCYCLIUM],Negative: based on the absence of positive reported data from WMDD
2,CCCCCCc1ccc(O)cc1O [HEXYLRESORCINOL],Negative: based on the absence of positive reported data from WMDD
3,NCCc1c[nH]cn1 [HISTAMINE],Negative: based on the absence of positive reported data from WMDD
4,C[N+]1(C)[C@@H]2CC[C@H]1C[C@@H](OC(=O)C(O)c1ccccc1)C2.[Br-] (some centres undefined) [HOMATROPINE METHYLBROMIDE],Negative: based on the absence of positive reported data from WMDD
5,CN1CCCN(C(c2ccccc2)c2ccc(Cl)cc2)CC1 (centres undefined) [HOMOCHLORCYCLIZINE],Positive: strong inducer confirmed by electron microscopy
6,NNc1nncc2ccccc12 [HYDRALAZINE],Negative: based on the absence of positive reported data from WMDD
7,NS(=O)(=O)c1cc2c(cc1C(F)(F)F)NCNS2(=O)=O [HYDROFLUMETHIAZIDE],Negative: based on the absence of positive reported data from WMDD
8,N=C(N)c1ccc(/C=C/c2ccc(C(=N)N)cc2O)cc1 [HYDROXYSTILBAMIDINE],Negative: based on the absence of positive reported data from WMDD
9,OCCOCCN1CCN(C(c2ccccc2)c2ccc(Cl)cc2)CC1 (centres undefined) [HYDROXYZINE],Positive: strong inducer confirmed by electron microscopy
10,CC(=O)[C@]1(O)Cc2c(O)c3c(c(O)c2[C@@H](O[C@H]2C[C@H](N)[C@H](O)[C@H](C)O2)C1)C(=O)c1ccccc1C3=O [IDARUBICIN],Negative: based on the absence of positive reported data from WMDD
11,CN(C)CCCN1c2ccccc2CCc2ccccc21 [IMIPRAMINE],Positive: strong inducer confirmed by electron microscopy
12,Nc1cc(-c2ccncc2)c[nH]c1=O [INAMRINONE],Negative: based on the absence of positive reported data from WMDD
13,CC1(C)C(/C=C/C=C/C=C/C=C2/N(CCCCS(=O)(=O)[O-])c3ccc4ccccc4c3C2(C)C)=[N+](CCCCS(=O)(=O)[O-])c2ccc3ccccc3c21.[Na+] [INDOCYANINE GREEN],Negative: based on the absence of positive reported data from WMDD
14,O=C(NC1CCN(CCc2c[nH]c3ccccc23)CC1)c1ccccc1 [INDORAMIN],Positive: strong inducer confirmed by electron microscopy
15,O[C@H]1[C@H](O)[C@@H](O)[C@H](O)[C@@H](O)[C@H]1O [INOSITOL],Negative: based on the absence of positive reported data from WMDD
16,CC(=O)NCc1c(I)c(NC(C)=O)c(I)c(C(=O)O)c1I [IODAMIDE],Negative: based on the absence of positive reported data from WMDD
17,O=C(CCCCC(=O)Nc1c(I)cc(I)c(C(=O)O)c1I)Nc1c(I)cc(I)c(C(=O)O)c1I [IODIPAMIDE],Negative: based on the absence of positive reported data from WMDD
18,O=c1[nH]c(=S)[nH]cc1I [IODOTHIOURACIL],Negative: based on the absence of positive reported data from WMDD
19,CNC(=O)c1c(I)c(NC(C)=O)c(I)c(C(=O)O)c1I [IOTHALAMIC ACID],Negative: based on the absence of positive reported data from WMDD
20,CN(C)/C=N/c1c(I)cc(I)c(CCC(=O)O)c1I [IPODATE],Negative: based on the absence of positive reported data from WMDD

row,SMILES,Phospholipidosis
1,CN(C)CCCn1c2c(c3ccccc31)CCCCCC2 [IPRINDOLE],Positive: strong inducer confirmed by electron microscopy
2,CNC(C)CCC=C(C)C (centres undefined) [ISOMETHEPTENE],Negative: based on the absence of positive reported data from WMDD
3,NNC(=O)c1ccncc1 [ISONIAZID],Negative: based on the absence of positive reported data from WMDD
4,CC(C)[N+](C)(CCC(C(N)=O)(c1ccccc1)c1ccccc1)C(C)C [ISOPROPAMIDE],Negative: based on the absence of positive reported data from WMDD
5,O=[N+]([O-])O[C@@H]1CO[C@H]2[C@@H]1OC[C@@H]2O [ISOSORBIDE MONONITRATE],Negative: based on the absence of positive reported data from WMDD
6,CC(COc1ccccc1)NC(C)C(O)c1ccc(O)cc1 (centres undefined) [ISOXSUPRINE],Negative: based on the absence of positive reported data from WMDD
7,NC[C@H]1O[C@H](O[C@H]2[C@H](O)[C@@H](O[C@H]3O[C@H](CO)[C@@H](O)[C@H](N)[C@H]3O)[C@H](N)C[C@@H]2N)[C@H](O)[C@@H](O)[C@@H]1O [KANAMYCIN A],Negative: based on the absence of positive reported data from WMDD
8,CC(=O)N1CCN(c2ccc(OCC3COC(Cn4ccnc4)(c4ccc(Cl)cc4Cl)O3)cc2)CC1 (centres undefined) [KETOCONAZOLE],Positive: weak inducer based on presence of foamy macrophages and cytoplasmic vacuolations
9,CN1CCC(=C2c3ccccc3CC(=O)c3sccc32)CC1 [KETOTIFEN],Negative: based on the absence of positive reported data from WMDD
10,CC(CCc1ccccc1)NCC(O)c1ccc(O)c(C(N)=O)c1 (centres undefined) [LABETALOL],Positive: weak inducer based on presence of foamy macrophages and cytoplasmic vacuolations
11,CC(O)C(=O)O (centres undefined) [LACTIC ACID],Negative: based on the absence of positive reported data from WMDD
12,Nc1ccn([C@@H]2CS[C@H](CO)O2)c(=O)n1 [LAMIVUDINE],Negative: based on the absence of positive reported data from WMDD
13,Cc1oncc1C(=O)Nc1ccc(C(F)(F)F)cc1 [LEFLUNOMIDE],Negative: based on the absence of positive reported data from WMDD
14,CC(C)C[C@H](N)C(=O)O [LEUCINE],Negative: based on the absence of positive reported data from WMDD
15,c1ccc([C@H]2CN3CCSC3=N2)cc1 [LEVAMISOLE],Negative: based on the absence of positive reported data from WMDD
16,C[N+](C)(C)C[C@H](O)CC(=O)[O-] [LEVOCARNITINE],Negative: based on the absence of positive reported data from WMDD
17,C[C@H]1COc2c(N3CCN(C)CC3)c(F)cc3c(=O)c(C(=O)O)cn1c23.C[C@H]1COc2c(N3CCN(C)CC3)c(F)cc3c(=O)c(C(=O)O)cn1c23.O [LEVOFLOXACIN],Negative: confirmed by electron microscopy
18,CC[C@H](OC(C)=O)C(C[C@H](C)N(C)C)(c1ccccc1)c1ccccc1 [LEVOMETHADYL ACETATE],Negative: based on the absence of positive reported data from WMDD
19,CCN(CC)CC(=O)Nc1c(C)cccc1C [LIDOCAINE],Positive: weak inducer based on presence of foamy macrophages and cytoplasmic vacuolations
20,NC[C@@H]1O[C@H](O[C@H]2[C@@H](O)[C@H](O[C@@H]3[C@@H](O)[C@H](N)C[C@H](N)[C@H]3O[C@H]3O[C@H](CO)[C@@H](O)C[C@H]3N)O[C@@H]2CO)[C@H](N)[C@@H](O)[C@@H]1O[C@H]1O[C@H](CO)[C@@H](O)[C@H](O)[C@@H]1O [LIVIDOMYCIN],Negative: based on the absence of positive reported data from WMDD

row,SMILES,Phospholipidosis
1,CN1[C@@H](CC(=O)c2ccccc2)CCC[C@H]1C[C@H](O)c1ccccc1 [LOBELINE],Negative: based on the absence of positive reported data from WMDD
2,CCOC(=O)N1CCC(=C2c3ccc(Cl)cc3CCc3cccnc32)CC1 [LORATADINE],Positive: weak inducer based on presence of foamy macrophages and cytoplasmic vacuolations
3,O=C1Nc2ccc(Cl)cc2C(c2ccccc2Cl)=NC1O (centres undefined) [LORAZEPAM],Negative: based on the absence of positive reported data from WMDD
4,CN1CCN(C2=Nc3ccccc3Oc3ccc(Cl)cc32)CC1 [LOXAPINE],Negative: based on the absence of positive reported data from WMDD
5,CCN(CC)CCNc1ccc(C)c2sc3ccccc3c(=O)c12 [LUCANTHONE],Negative: based on the absence of positive reported data from WMDD
6,CCN(CC)C(=O)[C@@H]1C=C2c3cccc4[nH]cc(c34)C[C@H]2N(C)C1 [LYSERGIDE],Positive: weak inducer based on presence of foamy macrophages and cytoplasmic vacuolations
7,NCCCC[C@H](N)C(=O)O [LYSINE],Negative: based on the absence of positive reported data from WMDD
8,OC[C@H]1O[C@H](O[C@H]2[C@H](O)[C@@H](O)[C@H](O)O[C@@H]2CO)[C@H](O)[C@@H](O)[C@@H]1O [MALTOSE],Negative: based on the absence of positive reported data from WMDD
9,CNCCCC12CCC(c3ccccc31)c1ccccc12 [MAPROTILINE],Positive: strong inducer confirmed by electron microscopy
10,CC12CC3CC(C)(C1)CC(N)(C3)C2 [MEMANTINE],Positive: weak inducer based on presence of foamy macrophages and cytoplasmic vacuolations
11,CC1=CC(=O)c2ccccc2C1=O [MENADIONE],Negative: confirmed by electron microscopy
12,C[N+]1(C)CCCC(OC(=O)C(O)(c2ccccc2)c2ccccc2)C1.[Br-] (centres undefined) [MEPENZOLATE BROMIDE],Negative: based on the absence of positive reported data from WMDD
13,C[C@H]1C[C@H]2[C@@H]3CCC4=CC(=O)C=C[C@]4(C)[C@H]3C(=O)C[C@]2(C)[C@@]1(O)C(=O)CO [MEPREDNISONE],Negative: based on the absence of positive reported data from WMDD
14,Sc1ncnc2nc[nH]c12 [MERCAPTOPURINE ANHYDROUS],Negative: based on the absence of positive reported data from WMDD
15,CN1CCCCC1CCN1c2ccccc2Sc2ccc([S+](C)[O-])cc21 (centres undefined) [MESORIDAZINE],Positive: weak inducer based on presence of foamy macrophages and cytoplasmic vacuolations
16,Cc1ccc(S(=O)(=O)NC(=O)NC2CCCCC2)cc1N [METAHEXAMIDE],Negative: based on the absence of positive reported data from WMDD
17,Cc1cc(C)cc(OCC2CNC(=O)O2)c1 (centres undefined) [METAXALONE],Negative: based on the absence of positive reported data from WMDD
18,CN(C)C(=N)N=C(N)N [METFORMIN],Negative: confirmed by electron microscopy
19,CC(=O)OC(C)C[N+](C)(C)C (centres undefined) [METHACHOLINE],Negative: based on the absence of positive reported data from WMDD
